Experimental data from paper PMC5877874, “Prenylated phloroglucinols from Hypericum scruglii, an endemic species of Sardinia (Italy), as new dual HIV-1 inhibitors effective on HIV-1 replication” (PLoS ONE, 2018).
Like-named read-outs stand apart in the source and are kept apart here.

Key:
[1] = target: T1, HIV-1 RT-associated RNase H activity (Human immunodeficiency virus type 1 group M subtype B, UniProt P04585); assay: RNase H polymerase-independent cleavage assay; type: biochemical; conditions: for IC50: concentration required to inhibit the HIV-1 RNase H activity by 50%; for Inhibition of both HIV-1 RT-associated RNase H and RDDP functions (in words): maximum concentration tested 100 μM
T1 construct: His-tagged p66/p51 HIV-1 RT; His tag; made in house; host or cells: Escherichia coli strain M15
Procedure: (§1) His-tagged p66/p51 HIV-1 RT was expressed in Escherichia coli strain M15 as previously described. Full-length IN and LEDGF proteins were expressed in E. coli BL21 (DE3).
The HIV-1 RT-associated RNase H activity was measured in 100 μL reaction volume containing 50 mM Tris–HCl, pH 7.8; 6 mM MgCl2; 1 mM dithiothreitol (DTT); 80 mM KCl; hybrid RNA/DNA (5′-[…]-3′-fluorescein, 5′-[…]-3′-Dabcyl); and 3.8 nM RT. The reaction mixture was incubated for 1 h at 37°C, the reaction was stopped by the addition of EDTA, and products were measured with a Victor 3 (Perkin) at 490/528 nm.

[2] = target: T2, HIV-1 RT-associated RDDP activity (Human immunodeficiency virus type 1 group M subtype B, UniProt P04585); assay: RDDP assay (Enz-Check Reverse Transcriptase Assay Kit); type: biochemical; conditions: for IC50: concentration required to inhibit the HIV-1 RDDP activity by 50%
T2 construct: His-tagged p66/p51 HIV-1 RT; His tag; made in house; host or cells: Escherichia coli strain M15
Procedure: as §1
The HIV-1 RT-associated RDDP activity was measured using the Enz-Check Reverse Transcriptase Assay Kit (Life technologies, Carls- bad, California, USA), as previously described. The Yonetani-Theorell analysis was performed as previously reported.

[3] = target: T3, HIV-1 IN in the presence of LEDGF/p75 (Human immunodeficiency virus type 1 group M subtype B, UniProt P04585); assay: HTRF LEDGF dependent integrase assay; type: biochemical; conditions: for IC50: IN catalytic activities in the presence of LEDGF/p75
T3 construct: Full-length IN and LEDGF proteins were expressed in E. coli BL21 (DE3); made in house; host or cells: E. coli BL21 (DE3)
Procedure: as §1
The IN LEDGF/p75 dependent assay allowed to measure the inhibition of the 3’processing and strand transfer IN reactions in the presence of recombinant LEDGF/p75 protein, as previously described. Briefly, 50 nM IN was preincubated with increasing concentration of compounds for 1 hour at room temperature in reaction buffer containing 20 mM HEPES pH 7.5, 1 mM DTT, 1% Glycerol, 20 mM MgCl2, 0.05% Brij-35 and 0.1 mg/ml BSA. To this mixture, 9 nM DNA donor substrate (5’-[…]-Biotin-3’ annealed with 5’-[…]-Biotin3’) and 50 nM DNA acceptor substrate (5’-Cy5-[…]-3’ annealed with 5’-Cy5- […]-3’) and 50 nM LEDGF/p75 protein were added and incubated at 37°C for 90 minutes.

HIV-1 virus NL(AD8) = assay: Antiviral activity on HIV-1 (AD8) replication in TZM-bl cells (CPRG assay); type: cell-based; conditions: for EC50: read-out: EC50, HIV-1 (AD8) replication
Procedure: (§2) The human TZM-bl indicator cell line was obtained from the American Type Culture Collection (Manassas, VA) and maintained at 37°C and 5% CO2 in Dulbecco's modified Eagle's medium (DMEM) containing 10% fetal bovine serum, 50 μg/mLpenicillin, and 50 μg/mL streptomycin. The HIV-1 virus NL(AD8) was titrated as follows: serial 5-fold dilutions of the virus were made in quadruplicate wells in 96-well culture plates, in a total volume of 100 μL of growth medium, for a total of 8 dilution steps. Freshly trypsinized cells (20,000 cells in 100 μL of growth medium containing 75 μg/mL DEAE-dextran) were added to each well, and the plates were incubated at 37°C in a humidified 5% CO2-95% air environment. After 48 h of incubation, the medium was removed and viral infection was quantified using a β-galactosidase (CPRG) assay (Roche). Twenty thousand TZM-bl cells/well were seeded in 96-well plates in complete DMEM supplemented with 30 μg/mL DEAE-dextran (Sigma-Aldrich). Three hundred times the 50% tissue culture infective dose (TCID50)/mL of HIV AD8 strain and seven serial dilutions (range, 40.000 nM to 625 nM) of each compound were added to the cells, as previously described. Vehicle (0.1% dimethyl sulfoxide [DMSO])-treated cells served as a negative control. […] The TZM-bl indicator cell line has an integrated copy of the β-galactosidase gene under control of the HIV-1 promoter. Β-Galactosidase expression, measured by use of a chlorophenol red/β-D-galactopyranoside (CPRG) assay (Roche) in cell lysates 48 h post-infection was used as a marker of HIV infection. The inhibitory curves were fitted by nonlinear regression, allowing for the calculation of the 50% effective concentration (EC50) using the Prism software. To evaluate the cell toxicity of the compounds, the metabolic XTT [2,3-bis-(2-methoxy-4-nitro-5-sulfophenyl)-2H-tetrazolium-5-carboxanilide] test (Sigma-Aldrich) was performed according to the manufacturer's instructions.

TZM-bl cells = assay: Cell toxicity, metabolic XTT test; type: cell-based, human
Procedure: as §2

[4] = Cell toxicity, metabolic XTT test; type: cell-based, human; conditions: human; TZM-bl cells, XTT; read-out: CC50, TZM-bl cell viability
Procedure: as §2

[5] = system: env-pseudotyped HIV-1 virus (REJO4541 clone 67); type: cell-based; conditions: TZM-bl cells, 40-fold EC50 concentration
Procedure: In TOA experiment it is of fundamental importance that only one replication cycle has been completed to avoid confounding effects derived from unwashed viruses after 1 hour of infection. […] 40000 TZM-bl cells/well in a 96-multiwell plate were infected with 1500 X the TCID50 per mL of the env-pseudotyped HIV-1 virus in complete medium supplemented with DEAE-dextran (Sigma–Aldrich, 30 mg/mL). Virus was incubated with cells for 1 h at 4°C, and unbound virus was subsequently removed by extensive and repeated washing with phosphate-buffered saline (PBS) to synchronize the replication. […] After 2 days, viral infection was quantified using a CPRG assay (Roche) and was then normalized to untreated control cells.

[6] = TZM-bl cells, 48 h post-infection
[7] = Human immunodeficiency virus 1, TZM-bl, 48 h

3-geranyl-1-(2'-methylbutanoyl)phloroglucinol [Compound 1]
IC50 [1]: 4.3 ± 0.4 µM | IC50 [2]: 25.5 ± 8.8 µM | IC50 [3]: 7.3 ± 0.3 µM | EC50 (HIV-1 virus NL(AD8); [6]): 3.5 µM | CC50 (TZM-bl cells): > 50 µM

3-geranyl-1-(2'-methylpropanoyl)phloroglucinol [Compound 2]
IC50 [1]: 4.1 ± 0.1 µM | IC50 [2]: 12.3 ± 2.5 µM | IC50 [3]: 7.4 ± 0.4 µM | EC50 (HIV-1 virus NL(AD8); [6]): 8 µM | CC50 (TZM-bl cells): > 50 µM

C=C(C)C(O)CC/C(C)=C/Cc1c(O)cc(O)c(C(=O)C(C)CC)c1O (stereo not drawn) [Compound 3, 3-(13-hydroxygeranyl)-1-(2'-methylbutanoyl)phloroglucinol]
IC50 [1]: 9.1 ± 0.5 µM | IC50 [2]: 19.7 ± 3.5 µM | IC50 [3]: 13 ± 1 µM | EC50 (HIV-1 virus NL(AD8); [7]): 3.5 µM | CC50 [4]: > 50 µM | Time of addition after which antiviral activity is lost [5]: 4–5 hour post-infection

Oc1cc(O)c(CC(O)C(O)c2ccc(O)c(O)c2)c(O)c1 [Compound 4, 1,3,5-benzentriol 2-[(2S,3R)-3-(3,4-dihydroxylphenyl)-2,3-dihydroxylpropyl]]
Inhibition of both HIV-1 RT-associated RNase H and RDDP functions (in words) [1]: weak inhibition | IC50 [1]: 93 ± 7 µM | IC50 [2]: 92 ± 10 µM | IC50 [3]: 6.4 ± 0.7 µM | EC50 (HIV-1 virus NL(AD8); [7]): > 40 µM

O=C(O)c1ccc(O)c(O)c1 [Compound 5, 3,4-dihydroxybenzoic acid]
remaining activity at 100 µM ([1]; 100 μM compound, read-out: Percentage of control RNase H activity in the presence of compound): 100% | Inhibition of both HIV-1 RT-associated RNase H and RDDP functions (in words) [1]: inactive | IC50 [1]: > 100 µM | remaining activity at 100 µM ([2]; 100 μM compound, read-out: Percentage of control RDDP activity in the presence of compound): 85% | IC50 [2]: > 100 µM | remaining activity at 100 µM ([3]; 100 μM compound, in the presence of LEDGF, read-out: Percentage of control IN activity in the presence of compound): 97% | IC50 [3]: > 100 µM | HIV-1 IN inhibition (in words) ([3]; in presence of LEDGF/p75): not active | EC50 (HIV-1 virus NL(AD8); [7]): > 40 µM

C[C@@H]1O[C@@H](Oc2c(-c3ccc(O)c(O)c3)oc3cc(O)cc(O)c3c2=O)[C@H](O)[C@H](O)[C@H]1O [Compound 6, quercitrin]
Inhibition of both HIV-1 RT-associated RNase H and RDDP functions (in words) [1]: active in the low micromolar range | IC50 [1]: 6.3 ± 1 µM | IC50 [2]: 9.7 ± 1.4 µM | IC50 [3]: 1.6 ± 0.16 µM | Fold more active on HIV-1 IN activity with respect to HIV-1 RNase H function ([3]; IN versus RNase H IC50): 4 fold | EC50 (HIV-1 virus NL(AD8); [7]): > 40 µM | Effect on HIV-1 replication (in words) (HIV-1 virus NL(AD8); highest tested concentration, TZM-bl cells): did not exert any effect

CCOC(=O)C(=O)CC(=O)/C=C/c1cccn1Cc1ccccc1Cl [RDS 1759, reference compound]
IC50 [1]: 7.3 ± 0.1 µM

Maraviroc [reference compound]
EC50 (HIV-1 virus NL(AD8); [6]): 0.07 µM
